Test results from patent US20240315993A1, “ANTIPARASITIC COMPOUNDS” (Intervet Inc., priority 2021, published 2024).

What was measured:
[1] = system: Copepodids (juvenile sea lice stage of Lepeophtheirus salmonis); assay: Juvenile sea lice contact assay; conditions: Lepeophtheirus salmonis, ~24 h, read-out: Sea lice inhibition (% of dead+damaged copepodids); for inhibition at 0.01 µM: 10 nM in seawater
Protocol: Copepodids (juvenile sea lice stage of Lepeophtheirus salmonis) were exposed to seawater spiked with declining concentrations of a test compound (dissolved in a DMSO sea-water mixture). Sea lice inhibition (% of dead+damaged copepodids) was assessed after approximately 24 hours of continuous exposure. The vitality of used parasites was confirmed in a negative (solvent) control group.

[2] = system: Mobile stages of sea lice (pre-adults, adults of Lepeophtheirus salmonis); assay: Adult sea lice contact assay; conditions: pre-adults/adults, assessed after ~1 and 24 h, read-out: EC50 (sea lice inhibition, dead+damaged)
Protocol: Mobile stages of sea lice (i.e., pre-adults, adults of Lepeophtheirus salmonis) were exposed to seawater spiked with declining concentrations of a test compound (dissolved in a PEG sea-water mixture). Sea lice inhibition (% of dead+damaged sea lice) was assessed after approximately 1 and 24 hours of continuous exposure in comparison to a negative (solvent) control group.

[3] = system: juvenile soft ticks (Ornithodoros moubata); assay: Guinea pig - efficacy against argaside tick; format: in vivo; conditions: for effective to control ticks: at least until Day 10, both administration routes (oral, subcutaneous)
How it was run: (§1)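 Guinea pigs given 5 mg/kg test compound orally (gavage) or s.c. in 10% DMF/emulsifier plus 90% water for injection, with local co-infestations of Ornithodoros moubata juveniles and Cimex lectularius at several post-treatment times. Engorged parasites scored dead/damaged about 24 h after collection; % inhibition versus pretreatment baseline by modified Schneider-Orelli formula.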

[4] = system: bed bugs (Cimex lectularius); assay: Guinea pig - efficacy against bed bug; format: in vivo; conditions: for effective to control bed bugs: 5 mg/kg, at least until Day 10, both administration routes (oral, subcutaneous)
How it was run: as §1

[5] = system: Lepeophtheirus salmonis; assay: Salmon - in vivo efficacy against sea lice using gavage administration; conditions: 5 mg/kg once by gavage, counted around day 28; for therapeutic efficacy against juvenile sea lice (% reduction vs control): day -3 infestation
Protocol: Salmon (Salmo solar) were treated once orally by gavage at a dose of 5 mg/kg bodyweight per fish (Day 0). As formulation DMSO 5%/fish oil 95% was used. Salmon of the negative control group received only the excipients of the formulation.
The fish were infested with Lepeophtheirus salmonis copepodids twice before treatment (i.e., around day −28 and day −3) and once after treatment (i.e., day 17).
Around day 28 (end of animal phase), fish were euthanized, and lice on each fish were classified ((pre-)adult or juvenile stage) and counted. […] Efficacy is expressed as a % reduction of sea lice in treated groups versus a control group, using the Abbott's formula.

[6] = system: Lepeophtheirus salmonis; assay: as above; conditions: po, 168 h, read-out: therapeutic efficacy against (pre-)adult sea lice (% reduction vs control), salmon, 5 mg/kg once by gavage, day -28 infestation, counted day 7
[7] = system: Rhipicephalus sanguineus or Haemaphysalis elliptica ticks; assay: Dog - efficacy against ticks; format: in vivo; conditions: for therapeutic efficacy against ticks (active = efficacy ≥80 percent): D2
Protocol: (§2) Beagle dogs were infested (whole body) with 80 Ctenocephalides felis fleas and 50 Rhipicephalus sanguineus or Haemaphysalis elliptica ticks (sex ratio 1:1) two days before the treatment day (Day 0), and repeatedly thereafter. Dogs of treatment groups were treated with 10 mg/kg bodyweight of a test compound orally (compound weighed in gelatin capsule), topically (spot-on, DMA 92%/DEET 8%) or subcutaneously (PEG 200 90%/water for injection 10%). Dogs of the negative control group received only an empty gelatin capsule orally and the spot-on formulation excipients topically.
(§3) Compounds with efficacy ≥80 percent were found active.

[8] = system: Ctenocephalides felis fleas; assay: Dog - efficacy against fleas; format: in vivo; conditions: for therapeutic efficacy against fleas (active = efficacy ≥80 percent): D2
Protocol: as §2, §3

[9] = system: Rhipicephalus microplus; assay: Cattle - efficacy against one-host tick; format: in vivo; conditions: 1 mg/kg pour on in Imwitor 988+Miglyol 840
Protocol: Cattle were infested (whole body) with up to 3000 Rhipicephalus microplus larvae two or three times per week before and after the treatment day (Day 0). Cattle of treatment groups were treated subcutaneously or topically (spray or pour-on) at a dose of 1 mg/kg bodyweight of a test compound. As subcutaneous formulation either 2-pyrrolidon 50%/Tween 80 50% or NMP 60%/PEG300 40% was used. As topical formulation either a spray solution (DMF/Emulsifier 2%/tap water 98%) (Compound 4) or a DMA 92%/DEET 8% pour-on solution (all other compounds) or a pour-on solution containing Imwitor 988 (20%)+Miglyol 840 (QS) (Compound 453 and Compound 466) or a pour-on solution containing Miglyol 840 (QS) (Compound 453) was used. Cattle of the negative control group received only the formulation excipients of the respective administration route.
Fully engorged female ticks dropping from cattle were collected daily after treatment and counted in treatment and control groups. Efficacy was expressed using the standard ADEQ analysis method (ADEQ calculation in accordance with WAAVP guidelines for evaluating the efficacy of acaricides against ticks on ruminants; Veterinary parasitology 136 (2006) 29-43). Compounds with efficacy ≥80 percent were found active/effective. Onset of efficacy means the first Day with efficacy ≥80 percent. Duration of efficacy means the last Day with efficacy ≥80 percent.

[10] = 5 mg/kg subcutaneous, after 7 days
[11] = 5 mg/kg subcutaneous, after 10 days

SMILES	inhibition at 0.01 µM [1]	EC50 [2]	activity against tick nymphs (≥80% inhibition, killed+damaged) ([3]; 5 mg/kg oral, Day 0)	activity against tick nymphs (≥80% inhibition, killed+damaged) ([3]; 5 mg/kg subcutaneous, Day 0)	activity against tick nymphs (≥80% inhibition, killed+damaged) [3, 10]	activity against bed bugs (≥80% inhibition, killed+damaged) ([4]; 5 mg/kg oral, Day 0)	activity against bed bugs (≥80% inhibition, killed+damaged) ([4]; 5 mg/kg subcutaneous, Day 0)	therapeutic efficacy against juvenile sea lice (% reduction vs control) [5]	inhibition in vivo at 5 mg/kg [6]	activity against tick nymphs (≥80% inhibition, killed+damaged) ([3]; 5 mg/kg oral, after 7 days)	activity against tick nymphs (≥80% inhibition, killed+damaged) ([3]; 5 mg/kg oral, after 10 days)	effective to control ticks ([3]; 5 mg/kg)	activity against bed bugs (≥80% inhibition, killed+damaged) ([4]; 5 mg/kg oral, after 7 days)	activity against bed bugs (≥80% inhibition, killed+damaged) ([4]; 5 mg/kg oral, after 10 days)	activity against bed bugs (≥80% inhibition, killed+damaged) [4, 10]	activity against bed bugs (≥80% inhibition, killed+damaged) [4, 11]	effective to control bed bugs [4]	further results
O=C(Nc1c(F)cc(F)cc1F)c1cc(NC(=O)[C@H]2[C@H](c3cc(Cl)cc(Cl)c3)C2(Cl)Cl)ccc1Cl [Compound 449]	100%	10 to 25 nM	immediate activity	immediate activity	activity	immediate activity	immediate activity	80%	80%	–	–	–	–	–	–	–	–	–
O=C(Nc1ccc(F)cc1F)c1cc(NC(=O)[C@H]2[C@H](c3cc(F)c(F)c(F)c3)C2(Cl)Cl)ccc1Cl [Compound 451]	–	≤ 10 nM	immediate activity	immediate activity	activity	immediate activity	immediate activity	–	80%	activity	activity	100%	activity	activity	activity	activity	100%	inhibition at 0.001 µM ([1]; 1 nM in seawater): 100%; activity against tick nymphs (≥80% inhibition, killed+damaged) [3, 11]: activity
O=C(Nc1cnc(F)cc1F)c1cc(NC(=O)[C@H]2[C@H](c3cc(Cl)cc(Cl)c3)C2(Cl)Cl)ccc1Cl [Compound 455]	100%	≤ 10 nM	immediate activity	immediate activity	–	immediate activity	immediate activity	100%	100%	–	–	–	–	–	–	–	–	duration of efficacy, subcutaneous compared with oral administration ([3]; 5 mg/kg, ticks and bed bugs): longer duration of efficacy
O=C(Nc1c(F)ccnc1F)c1cc(NC(=O)[C@H]2[C@H](c3cc(Cl)cc(Cl)c3)C2(Cl)Cl)ccc1Cl [Compound 456]	100%	≤ 10 nM	immediate activity	immediate activity	–	immediate activity	immediate activity	100%	80%	–	–	–	–	–	–	–	–	prophylactic efficacy at re-infestation on Day 17 (% reduction vs control) [5]: 80%
O=C(Nc1ncc(F)cn1)c1cc(NC(=O)[C@H]2[C@H](c3cc(Cl)cc(Cl)c3)C2(Cl)Cl)ccc1Cl [Compound 460]	100%	≤ 10 nM	immediate activity	immediate activity	–	immediate activity	immediate activity	100%	100%	–	–	–	activity	–	activity	–	–	–
O=C(Nc1cnc(F)cc1F)c1cc(NC(=O)[C@H]2[C@H](c3cc(Cl)c(Cl)c(Cl)c3)C2(Cl)Cl)ccc1Cl [Compound 466]	–	≤ 10 nM	immediate activity	immediate activity	activity	immediate activity	immediate activity	80%	80%	activity	activity	100%	activity	activity	activity	activity	100%	inhibition at 0.1 µM ([1]; 100 nM in seawater): 100%; activity against tick nymphs (≥80% inhibition, killed+damaged) ([3]; 5 mg/kg oral, after 14 days): activity; activity against bed bugs (≥80% inhibition, killed+damaged) ([4]; 5 mg/kg oral, after 14 days): activity; activity against bed bugs (≥80% inhibition, killed+damaged) ([4]; 5 mg/kg oral, after 17 days): activity; activity against bed bugs (≥80% inhibition, killed+damaged) ([4]; 5 mg/kg subcutaneous, after 14 days): activity; activity against bed bugs (≥80% inhibition, killed+damaged) ([4]; 5 mg/kg subcutaneous, after 17 days): activity; efficacy against ticks in dogs (conclusion) ([7]; 10 mg/kg): therapeutic efficacy; therapeutic efficacy against ticks (active = efficacy ≥80 percent) ([7]; 10 mg/kg oral): active; therapeutic efficacy against ticks (active = efficacy ≥80 percent) ([7]; 10 mg/kg topical spot-on): active; efficacy against fleas in dogs (conclusion) ([8]; 10 mg/kg): therapeutic efficacy; therapeutic efficacy against fleas (active = efficacy ≥80 percent) ([8]; 10 mg/kg oral): active; therapeutic efficacy against fleas (active = efficacy ≥80 percent) ([8]; 10 mg/kg topical spot-on): active; duration of efficacy (last Day with efficacy ≥80 percent) [9]: 87 days; onset of efficacy (first Day with efficacy ≥80 percent) [9]: 1 days
